Results on five compounds are retold here after patent US9024071B2, “Therapeutic compounds” (University of Florida Research Foundation, Inc., priority 2009, dated 2015).

“Also recorded” adds a separate entry of the source.

The target of assay [1] is T1, 5HT2C (Homo sapiens, UniProt P28335).
T1 sequence (P28335 33-458): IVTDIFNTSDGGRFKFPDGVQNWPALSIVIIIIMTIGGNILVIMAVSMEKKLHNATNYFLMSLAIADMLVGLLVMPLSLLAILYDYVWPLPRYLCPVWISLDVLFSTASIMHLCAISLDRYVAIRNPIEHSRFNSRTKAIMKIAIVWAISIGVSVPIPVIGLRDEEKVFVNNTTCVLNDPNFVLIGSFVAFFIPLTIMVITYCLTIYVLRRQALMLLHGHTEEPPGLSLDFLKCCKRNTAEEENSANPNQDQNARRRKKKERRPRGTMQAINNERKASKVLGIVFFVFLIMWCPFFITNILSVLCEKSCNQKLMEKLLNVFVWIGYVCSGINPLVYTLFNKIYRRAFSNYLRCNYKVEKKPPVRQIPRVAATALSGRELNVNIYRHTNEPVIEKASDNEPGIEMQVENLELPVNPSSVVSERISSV
The experiment in a line: Radioreceptor competition/saturation binding, 5HT2C ([3H]-mesulergine). The conditions noted are these: competitive binding; for nH: Hill slope; for Ki: wild type receptor transiently expressed (FIG. 1: HEK 293 cells). The protocol:
(§1) Cells are grown at 37° C. in a humidified incubator with 5% CO2. The cDNAs encoding the human 5-HT2A, 5-HT2B, and 5-HT2C receptors (wild type) are purchased from UMR (Rolla, Mo.) for transient transfection of the clonal cells. For radioreceptor binding assays, 5-HT2A, 5-HT2B, and 5-HT2C receptor membranes are prepared from transfected CHO-K1 cells. For functional assays measuring activity of PLC/IP formation, transfected CHO-K1 cells are used for 5-HT2A and 5-HT2C receptors. […] Twenty-four hours before transfection, cells are seeded at 40% confluence in 100 mm dishes for radioreceptor binding assays or at 10^5 cells per well in 12-well plates for functional assays. CHO-K1 cells are transiently transfected with 12 μg of plasmid and 32 μl of lipofectamine (Invitrogen) per 100 mm dish for radioreceptor binding assays, or, 0.8 μg plasmid and 4.0 μl of lipofectamine per well for functional assays. For 5-HT2B functional assays using HEK cells, 24 μg plasmid DNA is mixed with 60 μl of Lipofectamine 2000 (Invitrogen) to transfect 1-2×10^6 cells in a 10-cm plate. Cells are allowed to express transfected receptors for another 24 hrs (Herrick, 1997).
(§2) Radioreceptor saturation and competition binding assays are performed using membrane homogenates, similar to our methods reported previously for the phylogenetically closely related histamine H1 GPCR (Booth, 2002; Moniri et al., 2004). […] Briefly, forty-eight hours following CHO cell transfection, cells are harvested and homogenized in 50 mM Tris-HCl containing 0.1% ascorbic acid and 4.0 mM CaCl2 at pH 7.4 (assay buffer). The homogenate is centrifuged at 35,000 g for 25 min and the resulting membrane pellet is re-suspended in assay buffer. Protein concentration is determined by the method of Lowry et al. (Lowry, 1951). […] Incubation of radioreceptor binding assay mixtures is for 1.0 h at 37° C., with termination by rapid filtration through Whatman GF/B filters using a 96-well cell harvester (Tomtec, Hamden, Conn.). The membrane-bound [^3H]-radioligand retained on the filter discs is quantified by liquid scintillation spectrometry. Data are analyzed by nonlinear regression using the sigmoidal curve-fitting algorithms in Prism 4.03 (GraphPad Software Inc., San Diego, Calif.). Ligand affinity is expressed as an approximation of Ki values by conversion of the IC50 data to K0.5 values using the equation K0.5=IC50/1+L/KD, where L is the concentration of radioligand having affinity KD (Cheng, 1973).

For assay [2], the target named is T2, Histamine H1 WT (Homo sapiens, UniProt P35367).
T2 construct: expressed in transfected cells
Description: Competitive binding, histamine H1 receptor. The conditions noted are these: Hill slope. On the procedure: as §2

Assay [3] addresses T3, 5HT2A (Homo sapiens, UniProt P28223). Description: Radioreceptor competition/saturation binding, 5HT2A ([3H]-ketanserin). The conditions noted are these: competitive binding; for nH: Hill slope; for Ki: wild type receptor transiently expressed (FIG. 1: HEK 293 cells). The protocol: as §1, §2
The target in assay [4] is T4, 5HT2B (Homo sapiens, UniProt P41595). The experiment in a line: Radioreceptor competition/saturation binding, 5HT2B ([3H]-mesulergine). The conditions noted are these: competitive binding; for nH: Hill slope; for Ki: wild type receptor transiently expressed (FIG. 1: HEK 293 cells). On the procedure: as §1, §2
Assay [5] deals with 438 other kinases. The experiment in a line: Kinase affinity panel (labeled tag binding), other kinases. The conditions noted are these: at concentrations up to 1.0 uM.
Assay [6] has as its target RSK 3 (Homo sapiens, UniProt Q15349). The experiment in a line: Kinase affinity panel (labeled tag binding), RSK 3. The conditions noted are these: at 1.0 uM CAT.
Assay [7] addresses RSK 1 (Homo sapiens, UniProt Q15418). Description: Kinase affinity panel (labeled tag binding), RSK 1. The conditions noted are these: at 1.0 uM CAT.
The target of assay [8] is T1, 5HT2C. The experiment in a line: PLC activity/[3H]-IP formation, 5HT2C. The format is cell-based. The protocol:
(§3) Cells are grown at 37° C. in a humidified incubator with 5% CO2. The cDNAs encoding the human 5-HT2A, 5-HT2B, and 5-HT2C receptors (wild type) are purchased from UMR (Rolla, Mo.) for transient transfection of the clonal cells. For radioreceptor binding assays, 5-HT2A, 5-HT2B, and 5-HT2C receptor membranes are prepared from transfected CHO-K1 cells. For functional assays measuring activity of PLC/IP formation, transfected CHO-K1 cells are used for 5-HT2A and 5-HT2C receptors. For 5HT2B receptors, however, more robust and consistent results for the PLC/IP assay are obtained using transfected HEK cells (Setola et al., 2005). Twenty-four hours before transfection, cells are seeded at 40% confluence in 100 mm dishes for radioreceptor binding assays or at 10^5 cells per well in 12-well plates for functional assays. CHO-K1 cells are transiently transfected with 12 μg of plasmid and 32 μl of lipofectamine (Invitrogen) per 100 mm dish for radioreceptor binding assays, or, 0.8 μg plasmid and 4.0 μl of lipofectamine per well for functional assays. For 5-HT2B functional assays using HEK cells, 24 μg plasmid DNA is mixed with 60 μl of Lipofectamine 2000 (Invitrogen) to transfect 1-2×10^6 cells in a 10-cm plate. Cells are allowed to express transfected receptors for another 24 hrs (Herrick, 1997).
(§4) Functional activation of PLC is measured as [^3H]-IP formation in CHO cells transiently expressing serotonin 5-HT2C receptors or HEK cells transiently expressing serotonin 5-HT2A or 5-HT2B receptors, as previously reported (Moniri et al., 2004). Briefly, thirty-two hours following transfection, cells in inositol-free Dulbecco's modified Eagle's medium (DMEM) are incubated for twelve hours with 1.0 μCi/ml myo-[2-^3H]-inositol, the radiolabeled precursor of the PLC-β substrate phosphatidylinositol. […]
(§5) Functional activation of PLC is measured as [^3H]-IP formation in CHO cells transiently expressing 5-HT2A or 5-HT2C receptors and HEK cells transiently expressing 5HT2B receptors, as previously reported by our lab (Booth, 2002; Moniri et al., 2004). […]

In assay [9] the target is Histamine H1 receptor (Homo sapiens, UniProt P35367). The experiment in a line: Histamine H1 receptor-mediated stimulation of PLC activity/[3H]-IP formation. The format is cell-based. The conditions noted are these: against histamine activation.
Assay [10] addresses RSK 4 (Homo sapiens, UniProt Q9UK32). The experiment in a line: Kinase affinity panel (labeled tag binding), RSK 4. The conditions noted are these: at 1.0 uM CAT.
In assay [11] the target is T3, 5HT2A. The experiment in a line: PLC activity/[3H]-IP formation, 5HT2A. Format: cell-based. On the procedure: as §3, §4, §5
Assay [12] concerns the target RSK 2 (Homo sapiens, UniProt P51812). Description: Kinase affinity panel (labeled tag binding), RSK 2. The conditions noted are these: at concentrations up to 1.0 uM.
For assay [13], the target named is T4, 5HT2B. Description: PLC activity/[3H]-IP formation, 5HT2B. The format is cell-based. The protocol: as §1
Assay [14] relates to cocaine self-administration. The conditions noted are these: rat; cited from earlier work.
For assay [15], the target named is T1, 5HT2C. The conditions noted are these: cited from earlier work.
[16] abbreviates: inhibition of basal (constitutive) [3H]-IP formation.

T3 sequence (P28223 whole entry): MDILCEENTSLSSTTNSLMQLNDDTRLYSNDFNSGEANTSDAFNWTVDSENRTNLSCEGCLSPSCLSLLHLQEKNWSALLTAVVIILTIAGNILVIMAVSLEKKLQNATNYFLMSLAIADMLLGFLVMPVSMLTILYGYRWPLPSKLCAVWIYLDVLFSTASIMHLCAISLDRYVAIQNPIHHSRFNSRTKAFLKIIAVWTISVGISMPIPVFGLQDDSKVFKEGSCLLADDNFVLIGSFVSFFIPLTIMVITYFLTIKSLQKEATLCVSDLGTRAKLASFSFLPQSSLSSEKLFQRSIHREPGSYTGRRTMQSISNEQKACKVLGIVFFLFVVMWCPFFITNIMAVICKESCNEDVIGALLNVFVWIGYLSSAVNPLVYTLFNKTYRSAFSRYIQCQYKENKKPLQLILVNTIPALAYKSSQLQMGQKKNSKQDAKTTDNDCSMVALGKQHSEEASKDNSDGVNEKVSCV
T4 sequence (P41595 whole entry): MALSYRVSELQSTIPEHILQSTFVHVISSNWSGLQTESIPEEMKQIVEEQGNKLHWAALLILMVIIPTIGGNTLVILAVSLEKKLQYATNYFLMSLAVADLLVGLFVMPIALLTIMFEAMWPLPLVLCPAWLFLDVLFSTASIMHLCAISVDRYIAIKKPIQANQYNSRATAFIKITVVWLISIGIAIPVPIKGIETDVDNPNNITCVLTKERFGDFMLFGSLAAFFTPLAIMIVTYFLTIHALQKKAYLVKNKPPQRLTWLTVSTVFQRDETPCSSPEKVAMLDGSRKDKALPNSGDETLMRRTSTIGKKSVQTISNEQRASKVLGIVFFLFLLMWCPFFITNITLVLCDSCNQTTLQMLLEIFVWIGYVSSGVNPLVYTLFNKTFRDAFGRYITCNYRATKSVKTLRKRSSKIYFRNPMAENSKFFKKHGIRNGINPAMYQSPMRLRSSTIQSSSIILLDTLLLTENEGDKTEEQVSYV
Chain of Histamine H1 receptor (P35367 whole entry): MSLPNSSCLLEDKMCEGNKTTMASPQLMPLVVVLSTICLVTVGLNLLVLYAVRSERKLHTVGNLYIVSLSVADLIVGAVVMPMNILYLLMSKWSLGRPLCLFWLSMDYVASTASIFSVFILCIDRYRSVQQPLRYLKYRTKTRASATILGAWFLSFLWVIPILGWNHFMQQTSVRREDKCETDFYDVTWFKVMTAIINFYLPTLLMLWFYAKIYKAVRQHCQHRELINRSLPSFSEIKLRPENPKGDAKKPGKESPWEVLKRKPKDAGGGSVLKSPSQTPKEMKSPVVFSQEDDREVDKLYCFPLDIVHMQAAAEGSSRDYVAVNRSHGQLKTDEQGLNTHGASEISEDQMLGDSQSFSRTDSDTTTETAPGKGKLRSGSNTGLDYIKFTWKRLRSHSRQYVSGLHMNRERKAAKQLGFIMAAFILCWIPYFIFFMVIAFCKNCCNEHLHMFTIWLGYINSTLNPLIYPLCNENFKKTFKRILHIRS
T2 sequence (P35367 whole entry): as above
Chain of RSK 3 (Q15349 whole entry): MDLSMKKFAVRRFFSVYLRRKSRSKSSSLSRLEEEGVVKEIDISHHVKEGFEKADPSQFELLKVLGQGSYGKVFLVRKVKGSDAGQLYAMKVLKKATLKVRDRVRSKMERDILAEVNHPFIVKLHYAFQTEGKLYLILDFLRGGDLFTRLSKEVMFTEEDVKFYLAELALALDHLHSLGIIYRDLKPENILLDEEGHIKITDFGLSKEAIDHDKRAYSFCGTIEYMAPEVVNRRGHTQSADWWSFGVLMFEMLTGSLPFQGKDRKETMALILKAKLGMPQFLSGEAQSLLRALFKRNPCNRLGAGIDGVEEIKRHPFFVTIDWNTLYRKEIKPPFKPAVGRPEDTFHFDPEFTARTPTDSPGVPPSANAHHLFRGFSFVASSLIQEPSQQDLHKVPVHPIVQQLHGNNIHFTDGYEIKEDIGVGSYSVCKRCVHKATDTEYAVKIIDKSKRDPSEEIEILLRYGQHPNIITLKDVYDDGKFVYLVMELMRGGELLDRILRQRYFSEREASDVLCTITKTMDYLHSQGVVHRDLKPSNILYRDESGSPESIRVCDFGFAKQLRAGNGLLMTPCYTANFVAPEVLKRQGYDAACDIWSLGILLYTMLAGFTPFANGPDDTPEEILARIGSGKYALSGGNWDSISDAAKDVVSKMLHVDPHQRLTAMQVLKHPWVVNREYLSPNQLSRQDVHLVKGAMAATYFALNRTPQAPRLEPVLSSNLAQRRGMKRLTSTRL
Chain of RSK 2 (P51812 whole entry): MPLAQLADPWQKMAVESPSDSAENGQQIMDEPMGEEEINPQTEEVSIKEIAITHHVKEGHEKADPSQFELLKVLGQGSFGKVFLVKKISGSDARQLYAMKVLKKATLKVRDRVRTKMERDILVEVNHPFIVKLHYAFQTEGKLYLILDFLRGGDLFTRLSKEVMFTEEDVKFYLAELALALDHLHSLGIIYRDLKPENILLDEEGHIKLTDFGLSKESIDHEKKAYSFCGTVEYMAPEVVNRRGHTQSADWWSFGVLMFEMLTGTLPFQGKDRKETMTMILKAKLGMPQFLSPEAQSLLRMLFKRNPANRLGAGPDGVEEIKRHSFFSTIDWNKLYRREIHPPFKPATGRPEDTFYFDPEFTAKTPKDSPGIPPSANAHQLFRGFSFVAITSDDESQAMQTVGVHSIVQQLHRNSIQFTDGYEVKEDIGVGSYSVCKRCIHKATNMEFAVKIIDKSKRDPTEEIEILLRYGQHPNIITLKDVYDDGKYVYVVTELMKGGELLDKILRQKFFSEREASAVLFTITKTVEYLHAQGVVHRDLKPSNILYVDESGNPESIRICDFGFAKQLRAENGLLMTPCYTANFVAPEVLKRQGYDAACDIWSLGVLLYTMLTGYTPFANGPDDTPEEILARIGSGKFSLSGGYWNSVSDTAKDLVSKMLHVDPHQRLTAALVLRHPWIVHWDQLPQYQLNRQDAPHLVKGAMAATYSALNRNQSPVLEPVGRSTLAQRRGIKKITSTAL
Chain of RSK 1 (Q15418 whole entry): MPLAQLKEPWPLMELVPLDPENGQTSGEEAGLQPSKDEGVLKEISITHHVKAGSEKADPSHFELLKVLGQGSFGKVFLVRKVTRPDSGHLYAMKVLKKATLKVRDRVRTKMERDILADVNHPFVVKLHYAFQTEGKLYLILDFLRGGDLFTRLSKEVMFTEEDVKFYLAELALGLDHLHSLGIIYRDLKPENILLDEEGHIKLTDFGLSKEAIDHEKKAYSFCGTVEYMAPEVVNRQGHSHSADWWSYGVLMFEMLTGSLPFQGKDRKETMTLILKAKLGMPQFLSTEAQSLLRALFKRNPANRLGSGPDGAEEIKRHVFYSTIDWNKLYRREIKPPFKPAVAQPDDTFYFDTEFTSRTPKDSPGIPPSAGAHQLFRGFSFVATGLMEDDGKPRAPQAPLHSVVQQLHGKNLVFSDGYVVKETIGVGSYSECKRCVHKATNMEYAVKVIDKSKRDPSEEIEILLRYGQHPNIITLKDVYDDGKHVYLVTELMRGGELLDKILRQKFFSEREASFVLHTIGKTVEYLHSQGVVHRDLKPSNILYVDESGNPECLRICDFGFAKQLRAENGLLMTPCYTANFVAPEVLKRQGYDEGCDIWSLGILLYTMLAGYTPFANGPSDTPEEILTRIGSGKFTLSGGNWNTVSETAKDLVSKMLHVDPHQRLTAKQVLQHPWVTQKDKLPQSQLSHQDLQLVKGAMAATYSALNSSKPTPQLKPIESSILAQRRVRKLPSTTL
Chain of RSK 4 (Q9UK32 whole entry): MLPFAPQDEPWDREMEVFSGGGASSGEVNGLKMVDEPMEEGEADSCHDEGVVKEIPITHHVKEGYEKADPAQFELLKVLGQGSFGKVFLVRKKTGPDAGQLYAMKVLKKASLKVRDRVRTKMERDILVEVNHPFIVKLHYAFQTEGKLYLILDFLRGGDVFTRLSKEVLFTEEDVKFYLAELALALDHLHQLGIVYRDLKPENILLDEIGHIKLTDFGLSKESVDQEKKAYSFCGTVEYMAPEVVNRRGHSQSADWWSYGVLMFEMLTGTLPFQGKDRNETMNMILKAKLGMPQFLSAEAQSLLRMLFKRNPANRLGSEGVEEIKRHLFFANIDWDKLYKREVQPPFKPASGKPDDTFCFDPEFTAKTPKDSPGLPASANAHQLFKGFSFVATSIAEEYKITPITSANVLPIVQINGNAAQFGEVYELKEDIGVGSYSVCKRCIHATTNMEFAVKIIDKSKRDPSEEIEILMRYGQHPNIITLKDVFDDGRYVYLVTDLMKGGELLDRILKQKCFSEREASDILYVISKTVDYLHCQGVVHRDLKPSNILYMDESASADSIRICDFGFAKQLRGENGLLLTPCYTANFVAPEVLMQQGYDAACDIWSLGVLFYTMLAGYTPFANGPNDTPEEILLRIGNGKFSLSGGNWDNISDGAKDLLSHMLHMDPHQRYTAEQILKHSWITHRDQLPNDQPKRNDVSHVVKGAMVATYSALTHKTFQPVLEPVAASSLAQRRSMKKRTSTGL

`CN(C)[C@H]1Cc2ccccc2[C@H](C2CCCCC2)C1` [(+)-trans-CAT, (+)-(2R,4S)-4-cyclohexyl-N,Ndimethyl-1,2,3,4-tetrahydronaphthalen-2-amine]: the nH was 1.20 ± 0.26 in [1], 1.02 ± 0.00 in assay [2], 0.77 ± 0.20 in assay [3] and 0.75 ± 0.12 in [4]. Further, the values for the Ki in assay [1], in assay [3] and in assay [4] were 0.029 ± 0.0044 µM, 0.0782 ± 0.004 µM and 1.01 ± 0.14 µM, respectively.

On to `CN(C)[C@@H]1Cc2ccccc2[C@@H](C2CCCCC2)C1` [(−)-trans-CAT, (−)-(2S,4R)-4-cyclohexyl-N,N-dimethyl-1,2,3,4-tetrahydronaphthalen-2-amine], for which the nH in assay [1] was determined as 1.13 ± 0.18; in assay [2] it was 1.01 ± 0.05; in assay [3] it was 1.26 ± 0.01; in assay [4], 0.81 ± 0.02. Besides, the Ki was determined as 0.0137 ± 0.00217 µM in assay [1], 0.00161 ± 5e-05 µM in [3] and 0.0237 ± 0.00079 µM in assay [4]. Besides, the “binding to 438 other kinases” value in assay [5] is reported as “did not exhibit as significant binding”. Besides, the “inhibition of labeled tag binding” value in assay [6] and in assay [10] was 80% each time. In addition, in [7], the “inhibition of tag binding” value stood at 20%. Also, the “Kind of functional activity, PLC activity/IP formation” value in [8], in assay [11] and in assay [13] was “inverse agonist” each time. The “PLC/IP formation IMAX” value in [8] amounted to 60.65 ± 2.94 % Basal; in [11], 48.45 ± 5.50 % Basal; in assay [13] it was 56.80 ± 2.13 % Basal. Further, the IC50 turned out to be 0.19 ± 0.04 µM in [8] (setting [16]), 0.13 ± 0.02 µM in assay [11] (setting [16]) and 0.25 ± 0.03 µM in assay [13] (setting [16]). The “PLC/IP formation, kind of activity at H1” value in assay [9] is recorded as “competitively antagonized; also recorded: Competitive”. The “binding to RSK 2” value in assay [12] is “did not exhibit similarly significant binding”.

For `COc1cccc([C@H](O)C2CCN(CCc3ccc(F)cc3)CC2)c1OC` [M100907], in [14], the “rate of cocaine self-administration” value was “does not alter responding rate”.

In the case of `Cc1cc2c(cc1Cl)N(C(=O)Nc1ccc(Oc3cccnc3C)nc1)CC2` [SB242084], the “rate of cocaine self-administration” value in [14] was “increases the rate of cocaine self-administration dose-dependently”.

With `C[C@H]1CNCCc2ccc(Cl)cc21` [lorcaserin, Lorcaserin], the “selectivity for activation of 5HT2C receptors over 5HT2A receptors” value in assay [15] is 15 fold.

Usually Ki stands for the dissociation constant of the complex between target and ligand, obtained from inhibition or displacement. Low values mean tighter binding, high ones weaker binding. A word on the IC50: it is the concentration needed to halve the response being measured. A higher IC50 goes with weaker potency in that assay.
